Assay results: patent US4362718A, “Agent for curing peripheral circulation insufficiency” (Yamanouchi Pharmaceutical Co., Ltd., priority 1979, dated 1982)
Read-outs that look alike come from different tables or passages of the source.

What was measured:
red blood corpuscles [1] = test: Fine opening passability of red blood corpuscles (nitrocellulose membrane filter, 3.0 μm); type: cell-based, human; details: 37° C., 30 minutes, 3.0 μm filter, 80 mmHg/cm^2
Description: (§1) (1) One part by volume of human blood was mixed with 1 part by volume of a preservative solution (acid-citrate-dextrose solution) and preserved at 4° C. Just before using, it was washed 4 times with about 8 times by volume of a saline solution (2,000 rotations/minute, for 3 minutes) and a 2% saline floating solution of red blood corpuscles was prepared.
(§2) (2) A solution prepared by dissolving α1 -acid glycoprotein or a comparative substance shown in FIG. 1 in a saline solution was mixed with the same amount of the saline floating solution of red blood corpuscles, and the mixture was moderately shaked for 30 minutes at 37° C. 1 ml of the mixture was taken out and filtered by means of a nitrocellulose membrane filter (produced by Saltrius Co., diameter: 13 mm, diameter of fine openings: 3.0 μm) at 37° C. with pressing under 80 mmHg/cm^2. 0.5 ml of the filtrate was taken out and subjected to light centrifugal separation (1,500 rotations/minute, for 2 minutes). To the precipitate was added 5 ml of deionized water to cause hemolysis at a low tonicity, and a ratio of red blood corpuscles passing through the filter was calculated from the absorbance (420 nm) thereof. Further, percent hemolysis caused during the operation was calculated from the absorbance of the supernatant fluid of the filtrate.

[2] = system: red blood corpuscles through fine blood vessels; test: Passability of red blood corpuscles through vital fine blood vessels (exposed rabbit mesentery, reduced blood pressure); type: in vivo
Excerpt: A rabbit was subjected to laparotomy under urethane anesthesia to expose the mesentery and the passability of the red blood corpuscles through fine blood vessels was observed by means of a stereomicroscope.

Rat = test: Acute toxicity, rat; type: in vivo
Mouse = test: Acute toxicity, mouse; type: in vivo
HeLaS3 = test: Toxicity to cultivated cells, HeLaS3; type: cell-based
[3] = system: Human fetal lung fiber cell; test: Toxicity to cultivated cells, human fetal lung fiber cell; type: cell-based
[4] = system: EB virus transform lymphoblast P3HR-1; test: Toxicity to cultivated cells, P3HR-1; type: cell-based
red blood corpuscles [5] = system: red blood corpuscles
Description: as §1, §2

[6] = 100 μg-1 mg/kg, arterial blood pressure 40-60 mmHg/cm^2

| Substance | passage of red blood corpuscles through the filter (red blood corpuscles [1]; 0.05% solution, saline control did not pass at all) | impilation of corpuscles and separation of the corpuscle component from the serum [2, 6] | movement of red blood corpuscles [2, 6] | passability of red blood corpuscles through fine blood vessels under reduced blood pressure ([2]; continuously into local dominating artery or into a vein, 100 μg-1 mg/kg, blood pressure reduced by blood-letting or pentobarbital) | LD50 (Rat; intraperitoneally) | LD50 (Rat; intravenously) | LD50 (Rat; subcutaneously) | LD50 (Mouse; intraperitoneally) | LD50 (Mouse; intravenously) | LD50 (Mouse; subcutaneously) | Toxicity (50% Inhibition of propagation) (HeLaS3) [µg/mL] | Toxicity (50% Inhibition of propagation) [3] [µg/mL] | Toxicity (50% Inhibition of propagation) [4] [µg/mL] | percent hemolysis in case of passing through fine openings (red blood corpuscles [5]; 0.05% solution, saline alone as high as 20%) [%] | passage of red blood corpuscles through the filter (red blood corpuscles [1]; 0.1% solution, compared with α1 -acid glycoprotein) | stagnation of the blood flow and stopping of the blood corpuscles ([2]; in case of using dextran sulfate, reduced blood pressure) | percent hemolysis in case of passing through fine openings (red blood corpuscles [5]; human, red blood cells) [%] |
| --- | --- | --- | --- | --- | --- | --- | --- | --- | --- | --- | --- | --- | --- | --- | --- | --- | --- |
| α1 -acid glycoprotein: active ingredient of the present invention; substance known already, produced by the process described in Unexamined patent publication Sho 53-37187 | the red blood corpuscles passed through the filter with hardly causing hemolysis | impilation of corpuscles and separation of the corpuscle component from the serum were not observed | the red blood corpuscles moved in the normal direction though the movement was slow | the passability of red blood corpuscles was good | > 1,000 mg/kg | > 1,000 mg/kg | > 1,000 mg/kg | > 1,000 mg/kg | > 1,000 mg/kg | > 1,000 mg/kg | > 100 | > 100 | > 100 | 5 | – | – | – |
| dextran sulfate [reference compound] | – | – | – | – | – | – | – | – | – | – | – | – | – | – | passage of the red blood corpuscles was observed too, but the effect was small as compared with the case of α1 -acid glycoprotein | such stagnation of the blood flow and stopping of the blood corpuscles were not observed | 25 to 30 |
